In patent publication US20210261539A1, “COMPOUND HAVING BET INHIBITORY ACTIVITY AND PREPARATION METHOD AND USE THEREFOR” (Shanghai Haihe Pharmaceutical Co., Ltd., priority 2018, published 2021):

Molecular target: T1, BRD4 BD1 (Homo sapiens, UniProt O60885)
T1 construct: Protein BRD4 BD1 used in the assay was purchased from Active Motif (cat. 31380); purchased Active Motif 31380
Assay: HTRF in vitro enzyme activity assay, inhibition of BRD4 BD1 binding to acetylated H4 peptide
Settings: IC50 values of the compounds against BRD4 BD1 binding; class symbols A/B/C
Protocol: Effect Examples: In Vitro Enzyme Activity Assay
Half inhibitory activity (IC50) of the compounds of the invention against the bromodomain protein BRD4 BD1 was determined in the present Examples.
The compounds of the invention were tested for inhibitory activity against BRD4 BD1 with Homogeneous Time-Resolved Fluorescence (HTRF).
2. Reagents, Consumable Materials and Instruments:
Protein BRD4 BD1 used in the assay was purchased from Active Motif (cat. 31380); streptavidin XL-665 (#610SAXLA) and EPIgeneous Binding Domain Kit A (#62BDAPEG) were both purchased from Cisbio Bioassays; [Lys(5,8,12,16)Ac] H4(1-21)-biotin (#64989), [Lys(5,8,12,16)Ac]H4(1-25) were available from Anaspec; OTX015 and ABBV-075 were purchased from Selleckchem Co. The 384-well ProxiPlate (#6008280) was purchased from Perkinelmer Co. The Laboratory microplate reader (Envision 2104) was available from PerkinElmer Co. The water used in the assay was Millipore-Q pure water.
3. Formulation of the Compound
10 mM DMSO stock solution of the test compound was diluted to 1 mM in DMSO, and then diluted 10-fold in Binding Domain dilution buffer (purchased from Cisbio Bioassays) for use (DMSO concentration in the final system was 0.1%), including 5 concentrations in 1:5 gradient.
4. Assay Protocol: 1 Batch, 2 Repeats
1) 5 μL of test compound was transferred to 45 μL Binding Domain dilution buffer.
2) 2 μL of 1× compound (4 μL Binding Domain dilution buffer: positive control; 6 μL enzyme buffer (purchased from Cisbio Bioassays): negative control) was transferred to a reaction plate.
3) 4 μL of 5×BRD 4(1) was added to the reaction plate (30 nM in the final system).
4) 4 μL of 5×[Lys(5,8,12,16)Ac] H4(1-21)-biotin was added to the reaction plate, and the plate was covered with a film and incubated at 37° C. for 30 min.
5) A detection mixture of SA-XL665 (2×) and anti-H3K9me0-Eu(K) (2×) was prepared in detection buffer (purchased from Cisbio Bioassays).
6) 10 μL of detection mixture (2×) was added to each well, incubated at RT for 3 h. The mp value was read by microplate reader Envision with the following parameters: […]

IC50 | Compound
≤ 10 nM | CC1C(=O)N(C)c2ccc(N3C(=O)c4cc(F)ccc4C3c3cccnc3)nc2N1C1CC1 (single isomer, unassigned) [Example A74-P4, 4-cyclopropyl-6-(5-fluoro-3-oxo-1-(pyridin-3-yl)isoindolin-2-yl)-1,3-dimethyl-3,4-dihydropyrido[2,3-b]pyrazin-2(1H)-one]
10 to 100 nM | CCN1C(=O)C(C)N(C2CCCC2)c2nc(-n3c(=O)c4ccccc4n3-c3ccc(Cl)cc3)ccc21 (racemic) [Example A28, 6-(1-(4-chlorophenyl)-3-oxo-1,3-dihydro-2H-indazol-2-yl)-4-cyclopentyl-1-ethyl-3-methyl-3,4-dihydropyridine [2,3-b]pyrazin-2(1H)-one]
≤ 10 nM | CCSc1cccc2c1C(=O)N(c1ccc3c(n1)N(C1CC1)C(C)C(=O)N3C)C2c1cccnc1 (single isomer, unassigned) [Example A66-P3]
≤ 10 nM | CC1C(=O)N(C)c2ccc(-n3c(=O)c4ccccc4n3-c3ccc(Cl)cc3)nc2N1C1COC1 (centres unmarked) [Example A26-P2, 6-(1-(4-chlorophenyl)-3-oxo-1,3-dihydro-2H-indazol-2-yl)-1,3-dimethyl-4-(oxetan-3-yl)-3,4-dihydropyrido [2,3-b]pyrazin-2(1H)-one]
100 to 1000 nM | C[C@H]1Oc2nc(N3C(=O)c4cc(F)ccc4C3c3cccnc3)c(F)cc2N(C)C1=O (stereo partly drawn) [Example A118, (3R)-7-fluoro-6-(5-fluoro-3-oxo-1-(pyridin-3-yl)isoindolin-2-yl)-1,3-dimethyl-1H-pyrido[2,3-B][1,4]oxazin-2(3H)-one]
10 to 100 nM | CC1C(=O)N(C)c2ccc(N3C(=O)c4ccccc4C3c3ccc(Cl)cc3)nc2N1Cc1ccccc1 (racemic) [Example A35, 4-benzyl-6-(1-(4-chlorophenyl)-3-oxoisoindolin-2-yl)-1,3-dimethyl-3,4-dihydropyrido [2,3-b]pyrazin-2(1H)-one]
≤ 10 nM | C[C@@H]1C(=O)N(C)c2ccc(N3C(=O)c4cccnc4C3(O)c3ccccc3)nc2N1C (single isomer, unassigned) [Example A76-P1]
≤ 10 nM | Cc1ccc(-n2c3ccccc3c(=O)n2-c2ccc3c(n2)N(C2CC2)C(C)C(=O)N3C)cn1 (single isomer, unassigned) [Example A50-P1, 6-(1-(6-methyl-pyridin-3-yl)-3-oxo-1,3-dihydro-2H-indazol-2-yl)-4-cyclopropyl-1-methyl-3-methyl-3,4-dihydropyridine [2,3-b]pyrazin-2(1H)-one]
≤ 10 nM | CC1C(=O)N(C)c2ccc(N3C(=O)c4ccccc4C3c3ccc(F)cc3)nc2N1C1CC1 (single isomer, unassigned) [Example A23P4, 4-cyclopropyl-6-(1-(4-fluorophenyl)-3-oxoisoindolin-2-yl)-1,3-dimethyl-3,4-dihydropyrido[2,3-b]pyrazin-2(1H)-one]
100 to 1000 nM | CC(=O)N1c2nc(N3C(=O)CCC3c3ccc(F)cc3)ccc2N(C)C(=O)[C@H]1C (single isomer, unassigned) [Example A17-P1]
≤ 10 nM | CC1C(=O)N(C)c2ccc(N3C(=O)c4cccnc4C3(O)c3ccc(F)cc3F)nc2N1C1CC1 (single isomer, unassigned) [Example A13-P1, 4-cyclopropyl-6-(7-(2,4-difluorophenyl)-7-hydroxy-5-oxo-5,7-dihydro-6H-pyrrolo[3,4-b]pyridin-6-yl)-1,3-dimethyl-3,4-dihydropyrido[2,3-b]pyrazin-2(1H)-one]
10 to 100 nM | CCN1C(=O)[C@@H](C)Oc2nc(N3C(=O)c4ccccc4C3c3ccc(Cl)cc3)ccc21 (stereo partly drawn) [Example A109-P3, (R)-6-(1-(4-chlorophenyl)-3-oxoisoindolin-2-yl)-1-ethyl-3-methyl-1H-pyrido[2,3-B][1,4]oxazin-2-(3H)-one]
10 to 100 nM | CC1C(=O)N(C)c2ccc(N3C(=O)CCC3c3ccc(F)cc3)nc2N1C1CC1 (single isomer, unassigned) [Example A22-P1, 4-cyclopropyl-6-(2-(4-fluorophenyl)-5-oxopyrrolidin-1-yl)-1,3-dimethyl-3,4-dihydropyrido[2,3-b]pyrazin-2(1H)-one]
≤ 10 nM | C[C@@H]1C(=O)N(C)c2cnc(N3C(=O)c4c(cccc4C(C)(C)O)C3c3ccc(F)cc3)nc2N1C (single isomer, unassigned) [Example A96-P1]
≤ 10 nM | C[C@H]1Oc2nc(N3C(=O)c4ccccc4C3c3ccc(Cl)cc3)ccc2N(C)C1=O (stereo partly drawn) [Example A40-P1, (3R)-6-(1-(4-chlorophenyl)-3-oxoisoindolin-2-yl)-1,3-dimethyl-1H-pyrido[2,3-B][1,4]oxazin-2(3H)-one]
≤ 10 nM | CC1C(=O)N(C)c2ccc(N3C(=O)c4ccccc4C3c3ccc(F)cc3)nc2N1C1CCCC1 (racemic) [Example A38-P2, 4-cyclopentyl-6-(1-(4-fluorophenyl)-3-oxoisoindolin-2-yl)-1,3-dimethyl-3,4-dihydropyrido [2,3-b]pyrazin-2(1H)-one]
≤ 10 nM | CC1Oc2nc(N3C(=O)CCC3c3ccc(F)cc3)ccc2N(C)C1=O (single isomer, unassigned) [Example A21-P1, 6-(2-(4-fluorophenyl)-5-oxopyrrolidin-1-yl)-1,3-dimethyl-1H-pyrido[2,3-B][1,4]oxazin-2(3H)-one]
≤ 10 nM | CC1C(=O)N(C)c2cnc(N3C(=O)c4ccccc4C3c3cccnc3)nc2N1C1CC1 (single isomer, unassigned) [Example A98-P3, 8-cyclopropyl-5,7-dimethyl-2-(1-oxo-3-(pyridin-3-yl)isoindolin-2-yl)-7,8-dihydropteridin-6(5H)-one]
10 to 100 nM | C[C@H]1Oc2nc(N3C(=O)c4ccccc4C3c3ccc(F)nc3)ncc2N(C)C1=O (single isomer, unassigned) [Example A105-P1]
10 to 100 nM | C[C@H]1Nc2nc(N3C(=O)CCC3c3ccccc3)ccc2N(C)C1=O (single isomer, unassigned) [Example A20-P1]
≤ 10 nM | [2H]C([2H])([2H])N1C(=O)C(C)N(C2CC2)c2nc(N3C(=O)c4ccccc4C3c3ccc(F)cc3)ccc21 (centres unmarked) [Example A51-P3, 4-cyclopropyl-6-(1-(4-fluorophenyl)-3-oxoisoindolin-2-yl)-3-methyl-1-(trideuteromethyl)-3,4-dihydropyrido [2,3-B]pyrazin2(1 H)-one]
10 to 100 nM | CCN1C(=O)C(C)N(C2CCCC2)c2nc(N3C(=O)c4ccccc4C3c3ccc(F)cc3)ccc21 (racemic) [Example A24, 4-cyclopentyl-1-ethyl-6-(1-(4-fluorophenyl)-3-oxoisoindolin-2-yl)-3-methyl-3,4-dihydropyrido[2,3-b]pyrazin-2(1H)-one]
≤ 10 nM | CCN1c2nc(N3C(=O)CCC3c3ccc(F)cc3)ccc2N(C)C(=O)[C@H]1C (single isomer, unassigned) [Example A16-P1]
≤ 10 nM | [2H]C([2H])([2H])N1C(=O)C(C)N(C2CC2)c2nc(N3C(=O)c4ccccc4C3c3cccnc3)ccc21 (centres unmarked) [Example A43-P4, 4-cyclopropyl-3-methyl-1-(trideuteromethyl)-6-(1-oxo-3-(pyridin-3-yl)isoindolin-2-yl)-3,4-dihydropyrido [2,3-B]pyrazin-2(1H)-one]
≤ 10 nM | CC1C(=O)N(C)c2ccc(N3C(=O)c4ccccc4C3c3cccnc3)nc2N1C1CC1 (centres unmarked) [Example A36-P3, 4-cyclopropyl-1,3-dimethyl-6-(1-oxo-3-(pyridin-3-yl)isoindolin-2-yl)-3,4-dihydropyrido [3,2-b]pyrazin-2-(1H)-one]
≤ 10 nM | CC1C(=O)N(C)c2cnc(N3C(=O)c4ccccc4C3c3ccccc3)nc2N1C1CC1 (single isomer, unassigned) [Example A92-P4, 8-cyclopropyl-5,7-dimethyl-2-(1-oxo-3-phenylisoindolin-2-yl)-7,8-dihydropteridin-6(5H)-one]
≤ 10 nM | CC1C(=O)N(C)c2ccc(N3C(=O)c4ccccc4C3c3ccccn3)nc2N1C1CC1 (single isomer, unassigned) [Example A69-P3, 4-cyclopropyl-1,3-dimethyl-6-(1-oxo-3-(pyridin-2-yl)isoindolin-2-yl)-3,4-dihydropyrido[2,3-b]pyrazin-2(1H)-one]
≤ 10 nM | CC1C(=O)N(C)c2cnc(N3C(=O)c4ccccc4C3c3cccnc3)cc2N1C1CC1 (single isomer, unassigned) [Example A70-P3, 1-cyclopropyl-2,4-dimethyl-7-(1-oxo-3-(pyridin-3-yl)isoindolin-2-yl)-1,4-dihydropyrido[3,4-b]pyrazin-3(2H)-one]
≤ 10 nM | CC1C(=O)N(C)c2ccc(N3C(=O)c4ccccc4C3c3ccc(Cl)cc3)nc2N1C1COC1 (centres unmarked) [Example A31-P3, 6-(1-(4-chlorophenyl)-3-oxoisoindolin-2-yl)-1,3-dimethyl-4-(oxacyclebutan-3-yl)-3,4-dihydropyrido [3,2-B]pyrazin-2(1H)-one]
